Source: patent US20230114627A1, “COMPOSITION COMPRISING A METAL ASCORBO-CAMPHORATE COMPOUND AND METHOD FOR PREVENTION AND/OR TREATMENT OF PAPILLOMAVIRUS INFECTIONS” (MGB PHARMA Inc., priority 2020, published 2023)

Test system: HEC-1A cells
Assay: Cytokine/chemokine MultiPlex assay (BioPlex 200) of HEC-1A secretion
Assay type: cell-based
Settings: 24 hours
From the text: In the model as provided in this example, a method to assess the pro-inflammatory character of antivirals intended to be applied as mucosal topicals was used.
Epithelial cells are capable of secreting a set of molecules called cytokines and chemokines, which are responsible for the recruitment and activation of immune cells at the site of secretion. This process can be deleterious in the context of sexual transmission of HIV-1 because the recruited cells are the preferred targets of the virus. […] A microbicide candidate should therefore not promote inflammation by activating the production of this type of molecule by the cells directly in contact with the substance (epithelial cells). These secretions can be deleterious in the context of sexual transmission of HIV-1 or HPV and other papillomaviruses because the recruited cells are the preferred targets of the virus. A microbicide candidate must thus not promote inflammation by activating the production of these types of molecules by the cells in contact with the substance (epithelial cells).
After 24 hours of incubation, a panel of 48 inflammation-related cytokines/chemokines is assayed by MultiPlex (BioPlex 200 BioRad) in the basal medium.

zinc tetra-ascorbo-camphorate [C14]
CTACK (0 μM): 4.29 pg/mL
Eotaxin (0 μM): 0.87 pg/mL
FGF (0 μM): 1.515 pg/mL
G-CSF (0 μM): 1.885 pg/mL
GM-CSF (0 μM): 7.005 pg/mL
GROα (0 μM): 2.75 pg/mL
HGF (0 μM): 3.63 pg/mL
IFN-α2 (0 μM): 4.08 pg/mL
IFN-γ (0 μM): 94.255 pg/mL
IL-1rα (0 μM): 18.105 pg/mL
IL-1α (0 μM): 0 pg/mL
IL-1β (0 μM): 0.335 pg/mL
IL-2 (0 μM): 0.25 pg/mL
IL-2rα (0 μM): 4.06 pg/mL
IL-3 (0 μM): 6.785 pg/mL
IL-4 (0 μM): 0.16 pg/mL
IL-5 (0 μM): 0 pg/mL
IL-6 (0 μM): 0.435 pg/mL
IL-7 (0 μM): 3.95 pg/mL
IL-8 (0 μM): 971.01 pg/mL
IL-9 (0 μM): 25.865 pg/mL
IL-10 (0 μM): 3.085 pg/mL
IL-12 (0 μM): 98.495 pg/mL
IL-12ρ40 (0 μM): 0 pg/mL
IL-13 (0 μM): 3.34 pg/mL
IL-15 (0 μM): 0 pg/mL
IL-16 (0 μM): 0 pg/mL
IL-17 (0 μM): 0 pg/mL
IL-18 (0 μM): 0 pg/mL
IP-10 (0 μM): 6.19 pg/mL
LIF (0 μM): 0 pg/mL
M-CSF (0 μM): 3.725 pg/mL
MCP-1 (0 μM): 7.26 pg/mL
MCP-3 (0 μM): 0 pg/mL
MIF (0 μM): 6.92 pg/mL
MIG (0 μM): 3.09 pg/mL
MIP-1α (0 μM): 2.25 pg/mL
MIP-1β (0 μM): 1.32 pg/mL
PDGF-β (0 μM): 1.235 pg/mL
RANTES (0 μM): 12.86 pg/mL
SCF (0 μM): 0 pg/mL
SCGF-β (0 μM): 242.36 pg/mL
SDF-1α (0 μM): 13.03 pg/mL
TNF-α (0 μM): 4.9 pg/mL
TNF-β (0 μM): 0 pg/mL
TRAIL (0 μM): 3.43 pg/mL
VEGF (0 μM): 1384.84 pg/mL
β-NGF (0 μM): 1.04 pg/mL
effect on production of the 48 cytokines/chemokines (1 μM to 500 μM): did not affect the production
CTACK (5 μM): 4.29 pg/mL
Eotaxin (5 μM): 0 pg/mL
FGF (5 μM): 1.415 pg/mL
G-CSF (5 μM): 1.99 pg/mL
GM-CSF (5 μM): 6.24 pg/mL
GROα (5 μM): 0 pg/mL
HGF (5 μM): 5.43 pg/mL
IFN-α2 (5 μM): 3.58 pg/mL
IFN-γ (5 μM): 95.43 pg/mL
IL-1rα (5 μM): 10.215 pg/mL
IL-1α (5 μM): 0 pg/mL
IL-1β (5 μM): 0.31 pg/mL
IL-2 (5 μM): 0.105 pg/mL
IL-2rα (5 μM): 4.29 pg/mL
IL-3 (5 μM): 6.785 pg/mL
IL-4 (5 μM): 0.05 pg/mL
IL-5 (5 μM): 0 pg/mL
IL-6 (5 μM): 0.34 pg/mL
IL-7 (5 μM): 3.38 pg/mL
IL-8 (5 μM): 941.46 pg/mL
IL-9 (5 μM): 25.535 pg/mL
IL-10 (5 μM): 3.395 pg/mL
IL-12 (5 μM): 98.855 pg/mL
IL-12ρ40 (5 μM): 0 pg/mL
IL-13 (5 μM): 4.8 pg/mL
IL-15 (5 μM): 0 pg/mL
IL-16 (5 μM): 0 pg/mL
IL-17 (5 μM): 0 pg/mL
IL-18 (5 μM): 0 pg/mL
IP-10 (5 μM): 4.855 pg/mL
LIF (5 μM): 0 pg/mL
M-CSF (5 μM): 4.7 pg/mL
MCP-1 (5 μM): 5.105 pg/mL
MCP-3 (5 μM): 0 pg/mL
MIF (5 μM): 2.735 pg/mL
MIG (5 μM): 3.76 pg/mL
MIP-1α (5 μM): 2.105 pg/mL
MIP-1β (5 μM): 1.09 pg/mL
PDGF-β (5 μM): 0.865 pg/mL
RANTES (5 μM): 12.27 pg/mL
SCF (5 μM): 0 pg/mL
SCGF-β (5 μM): 258.645 pg/mL
SDF-1α (5 μM): 13.03 pg/mL
TNF-α (5 μM): 5.5 pg/mL
TNF-β (5 μM): 0 pg/mL
TRAIL (5 μM): 4.21 pg/mL
VEGF (5 μM): 1240.71 pg/mL
β-NGF (5 μM): 0.95 pg/mL
CTACK (10 μM): 3.45 pg/mL
Eotaxin (10 μM): 0 pg/mL
FGF (10 μM): 1.53 pg/mL
G-CSF (10 μM): 1.99 pg/mL
GM-CSF (10 μM): 6.65 pg/mL
GROα (10 μM): 0 pg/mL
HGF (10 μM): 5.43 pg/mL
IFN-α2 (10 μM): 4.08 pg/mL
IFN-γ (10 μM): 76.375 pg/mL
IL-1rα (10 μM): 14.085 pg/mL
IL-1α (10 μM): 0 pg/mL
IL-1β (10 μM): 0.33 pg/mL
IL-2 (10 μM): 0.305 pg/mL
IL-2rα (10 μM): 3.825 pg/mL
IL-3 (10 μM): 6.14 pg/mL
IL-4 (10 μM): 0.235 pg/mL
IL-5 (10 μM): 0 pg/mL
IL-6 (10 μM): 0.575 pg/mL
IL-7 (10 μM): 3.665 pg/mL
IL-8 (10 μM): 1115.205 pg/mL
IL-9 (10 μM): 26.025 pg/mL
IL-10 (10 μM): 3.17 pg/mL
IL-12 (10 μM): 103.16 pg/mL
IL-12ρ40 (10 μM): 0 pg/mL
IL-13 (10 μM): 4.145 pg/mL
IL-15 (10 μM): 0 pg/mL
IL-16 (10 μM): 0 pg/mL
IL-17 (10 μM): 0 pg/mL
IL-18 (10 μM): 0 pg/mL
IP-10 (10 μM): 7.165 pg/mL
LIF (10 μM): 0 pg/mL
M-CSF (10 μM): 4.805 pg/mL
MCP-1 (10 μM): 7.55 pg/mL
MCP-3 (10 μM): 0 pg/mL
MIF (10 μM): 1.06 pg/mL
MIG (10 μM): 3.76 pg/mL
MIP-1α (10 μM): 2.065 pg/mL
MIP-1β (10 μM): 1.555 pg/mL
PDGF-β (10 μM): 2.805 pg/mL
RANTES (10 μM): 12.995 pg/mL
SCF (10 μM): 0 pg/mL
SCGF-β (10 μM): 255.82 pg/mL
SDF-1α (10 μM): 11.41 pg/mL
TNF-α (10 μM): 6.985 pg/mL
TNF-β (10 μM): 0 pg/mL
TRAIL (10 μM): 5.025 pg/mL
VEGF (10 μM): 1530.905 pg/mL
β-NGF (10 μM): 0.86 pg/mL
CTACK (100 μM): 2.585 pg/mL
Eotaxin (100 μM): 0 pg/mL
FGF (100 μM): 1.635 pg/mL
G-CSF (100 μM): 1.885 pg/mL
GM-CSF (100 μM): 9.51 pg/mL
GROα (100 μM): 0 pg/mL
HGF (100 μM): 4.58 pg/mL
IFN-α2 (100 μM): 4.08 pg/mL
IFN-γ (100 μM): 89.85 pg/mL
IL-1rα (100 μM): 10.3 pg/mL
IL-1α (100 μM): 0 pg/mL
IL-1β (100 μM): 0.34 pg/mL
IL-2 (100 μM): 0.02 pg/mL
IL-2rα (100 μM): 3.245 pg/mL
IL-3 (100 μM): 5.495 pg/mL
IL-4 (100 μM): 0.33 pg/mL
IL-5 (100 μM): 0 pg/mL
IL-6 (100 μM): 0.255 pg/mL
IL-7 (100 μM): 4.495 pg/mL
IL-8 (100 μM): 783.255 pg/mL
IL-9 (100 μM): 22.305 pg/mL
IL-10 (100 μM): 3.505 pg/mL
IL-12 (100 μM): 99.355 pg/mL
IL-12ρ40 (100 μM): 0 pg/mL
IL-13 (100 μM): 3.735 pg/mL
IL-15 (100 μM): 0 pg/mL
IL-16 (100 μM): 0 pg/mL
IL-17 (100 μM): 0 pg/mL
IL-18 (100 μM): 0 pg/mL
IP-10 (100 μM): 0 pg/mL
LIF (100 μM): 0 pg/mL
M-CSF (100 μM): 4.725 pg/mL
MCP-1 (100 μM): 5.3 pg/mL
MCP-3 (100 μM): 0 pg/mL
MIF (100 μM): 1.06 pg/mL
MIG (100 μM): 2.75 pg/mL
MIP-1α (100 μM): 1.77 pg/mL
MIP-1β (100 μM): 1.26 pg/mL
PDGF-β (100 μM): 3.58 pg/mL
RANTES (100 μM): 12.205 pg/mL
SCF (100 μM): 0 pg/mL
SCGF-β (100 μM): 228.825 pg/mL
SDF-1α (100 μM): 11.41 pg/mL
TNF-α (100 μM): 5.465 pg/mL
TNF-β (100 μM): 0 pg/mL
TRAIL (100 μM): 5.025 pg/mL
VEGF (100 μM): 1469.495 pg/mL
β-NGF (100 μM): 0.95 pg/mL
CTACK (500 μM): 3.425 pg/mL
Eotaxin (500 μM): 3.21 pg/mL
FGF (500 μM): 1.925 pg/mL
G-CSF (500 μM): 2.3 pg/mL
GM-CSF (500 μM): 7.53 pg/mL
GROα (500 μM): 2.75 pg/mL
HGF (500 μM): 6.22 pg/mL
IFN-α2 (500 μM): 3.58 pg/mL
IFN-γ (500 μM): 98.775 pg/mL
IL-1rα (500 μM): 14.09 pg/mL
IL-1α (500 μM): 0 pg/mL
IL-1β (500 μM): 0.415 pg/mL
IL-2 (500 μM): 0.28 pg/mL
IL-2rα (500 μM): 4.39 pg/mL
IL-3 (500 μM): 6.785 pg/mL
IL-4 (500 μM): 0.295 pg/mL
IL-5 (500 μM): 0 pg/mL
IL-6 (500 μM): 0.79 pg/mL
IL-7 (500 μM): 4.66 pg/mL
IL-8 (500 μM): 1219.13 pg/mL
IL-9 (500 μM): 30.4 pg/mL
IL-10 (500 μM): 4.165 pg/mL
IL-12 (500 μM): 121.285 pg/mL
IL-12ρ40 (500 μM): 0 pg/mL
IL-13 (500 μM): 4.555 pg/mL
IL-15 (500 μM): 0 pg/mL
IL-16 (500 μM): 0 pg/mL
IL-17 (500 μM): 0 pg/mL
IL-18 (500 μM): 0 pg/mL
IP-10 (500 μM): 10.765 pg/mL
LIF (500 μM): 0 pg/mL
M-CSF (500 μM): 3.995 pg/mL
MCP-1 (500 μM): 5.165 pg/mL
MCP-3 (500 μM): 0 pg/mL
MIF (500 μM): 5.26 pg/mL
MIG (500 μM): 3.09 pg/mL
MIP-1α (500 μM): 2.04 pg/mL
MIP-1β (500 μM): 1.655 pg/mL
PDGF-β (500 μM): 6.19 pg/mL
RANTES (500 μM): 13.835 pg/mL
SCF (500 μM): 0 pg/mL
SCGF-β (500 μM): 128.865 pg/mL
SDF-1α (500 μM): 11.41 pg/mL
TNF-α (500 μM): 10.49 pg/mL
TNF-β (500 μM): 0 pg/mL
TRAIL (500 μM): 3.43 pg/mL
VEGF (500 μM): 1814.38 pg/mL
β-NGF (500 μM): 0.995 pg/mL
